From the CheMixHub viscosity set
Where “and” joins values, the source holds several entries; their conditions need not be identical. Equal entries are not always repeated. ± gives the uncertainty stated by the source.

Assay: xn = mol fraction of the nth substance listed

CCC(=O)c1ccccc1 + COCCO
viscosity [mPa·s], 101 kPa
Conditions	x1 = 0.0624	x1 = 0.1302	x1 = 0.2041	x1 = 0.2852	x1 = 0.3744	x1 = 0.4731	x1 = 0.5827	x1 = 0.7054	x1 = 0.8434
303.15 K	1.568 ± 0.064	1.562 ± 0.064	1.557 ± 0.064	1.551 ± 0.063	1.545 ± 0.063	1.54 ± 0.063	1.534 ± 0.063	1.529 ± 0.063	1.523 ± 0.063
308.15 K	1.394 ± 0.057	1.398 ± 0.057	1.403 ± 0.057	1.408 ± 0.058	1.414 ± 0.058	1.422 ± 0.058	1.431 ± 0.059	1.442 ± 0.06	1.454 ± 0.06
313.15 K	1.234 ± 0.05	1.246 ± 0.051	1.259 ± 0.051	1.274 ± 0.052	1.292 ± 0.053	1.312 ± 0.054	1.334 ± 0.055	1.359 ± 0.056	1.388 ± 0.058
318.15 K	1.108 ± 0.045	1.125 ± 0.046	1.145 ± 0.047	1.167 ± 0.048	1.192 ± 0.049	1.22 ± 0.05	1.251 ± 0.051	1.287 ± 0.053	1.328 ± 0.055

CC(C)NC(C)C + CCCCOCCO
viscosity [mPa·s], 100 kPa
Conditions	298.15 K	303.15 K	308.15 K
x2 = 0.0501	0.42 ± 0.02	0.4 ± 0.02	0.38 ± 0.02
x2 = 0.1005	0.47 ± 0.02	0.44 ± 0.02	0.42 ± 0.02
x2 = 0.15	0.54 ± 0.02	0.5 ± 0.02	0.47 ± 0.02
x2 = 0.2024	0.63 ± 0.03	0.58 ± 0.02	0.54 ± 0.02
x2 = 0.2999	0.8 ± 0.03	0.73 ± 0.03	0.68 ± 0.03
x2 = 0.3999	1.06 ± 0.03	0.95 ± 0.03	0.89 ± 0.03
x2 = 0.5001	1.38 ± 0.03	1.23 ± 0.03	1.14 ± 0.03
x2 = 0.6002	1.77 ± 0.03	1.56 ± 0.03	1.42 ± 0.03
x2 = 0.6997	2.14 ± 0.03	1.85 ± 0.03	1.68 ± 0.03
x2 = 0.7998	2.48 ± 0.03	2.14 ± 0.03	1.95 ± 0.03
x2 = 0.8999	2.74 ± 0.03	2.39 ± 0.03	2.14 ± 0.03
x2 = 0.9499	2.82 ± 0.03	2.47 ± 0.03	2.21 ± 0.03

CCCCCCCCCCCO + CCCCCCCCCCO
Conditions	viscosity [mPa·s]
293.15 K, 101.33 kPa, x2 = 0.1426	16.47 ± 0.38
293.15 K, 101.33 kPa, x2 = 0.4429	15.7 ± 0.36
293.15 K, 101.33 kPa, x2 = 0.6078	15.37 ± 0.36
293.15 K, 101.33 kPa, x2 = 0.7475	15.08 ± 0.35
293.15 K, 101.33 kPa, x2 = 0.889	14.71 ± 0.34
298.15 K, 101 kPa, x2 = 0.6999	12.35 ± 0.34
298.15 K, 101.33 kPa, x2 = 0.1426	13.44 ± 0.32
298.15 K, 101.33 kPa, x2 = 0.298	13.14 ± 0.31
298.15 K, 101.33 kPa, x2 = 0.7475	12.33 ± 0.29
298.15 K, 101.8 kPa, x2 = 0.1083	13.95 ± 0.37
298.15 K, 101.8 kPa, x2 = 0.3183	13.43 ± 0.37
298.15 K, 101.8 kPa, x2 = 0.5207	12.98 ± 0.37
298.15 K, 101.8 kPa, x2 = 0.7164	12.54 ± 0.36
308.15 K, 101.8 kPa, x2 = 0.1083	9.593 ± 0.37
308.15 K, 101.8 kPa, x2 = 0.3183	9.242 ± 0.34
308.15 K, 101.8 kPa, x2 = 0.5207	8.963 ± 0.34
308.15 K, 101.8 kPa, x2 = 0.7164	8.674 ± 0.34
308.15 K, 101.8 kPa, x2 = 0.907	8.384 ± 0.34
318.15 K, 101.8 kPa, x2 = 0.1083	6.748 ± 0.34
318.15 K, 101.8 kPa, x2 = 0.3183	6.559 ± 0.33
318.15 K, 101.8 kPa, x2 = 0.5207	6.332 ± 0.33
318.15 K, 101.8 kPa, x2 = 0.7164	6.148 ± 0.33
318.15 K, 101.8 kPa, x2 = 0.907	5.962 ± 0.33

CCC(=O)c1ccccc1 + CCOC(C)=O
viscosity [mPa·s], 101 kPa
Conditions	x1 = 0.0764	x1 = 0.1569	x1 = 0.2419	x1 = 0.3317	x1 = 0.4268	x1 = 0.5276	x1 = 0.6347	x1 = 0.7486	x1 = 0.8701
303.15 K	0.4784 ± 0.01	0.5399 ± 0.012	0.6088 ± 0.013	0.6897 ± 0.015	0.7853 ± 0.017	0.8977 ± 0.02	1.034 ± 0.023	1.199 ± 0.027	1.398 ± 0.032
308.15 K	0.4618 ± 0.01	0.519 ± 0.011	0.5844 ± 0.013	0.6608 ± 0.015	0.7493 ± 0.017	0.8602 ± 0.019	0.9953 ± 0.022	1.153 ± 0.026	1.333 ± 0.03
313.15 K	0.4426 ± 0.0096	0.4991 ± 0.011	0.5564 ± 0.012	0.6277 ± 0.014	0.7199 ± 0.016	0.8175 ± 0.018	0.9454 ± 0.021	1.095 ± 0.025	1.261 ± 0.029

OCCO + CC#N
viscosity [mPa·s], 100 kPa
Conditions	x2 = 0.1016	x2 = 0.2004	x2 = 0.3019	x2 = 0.3984	x2 = 0.4901	x2 = 0.6353	x2 = 0.6987	x2 = 0.8061	x2 = 0.8984
293.15 K	13 ± 2.6	8.4 ± 1.7	5.53 ± 1.1	3.48 ± 0.7	2.4 ± 0.48	1.35 ± 0.27	1.06 ± 0.21	0.71 ± 0.14	0.51 ± 0.1
298.15 K	11.2 ± 2.2	7.41 ± 1.5	4.87 ± 0.98	3.19 ± 0.64	2.21 ± 0.44	1.25 ± 0.25	0.98 ± 0.2	0.66 ± 0.13	0.48 ± 0.1
303.15 K	9.25 ± 1.9	6.17 ± 1.2	4.25 ± 0.85	2.85 ± 0.57	2.01 ± 0.4	1.17 ± 0.23	0.93 ± 0.19	0.63 ± 0.13	0.45 ± 0.09

CCC(=O)c1ccccc1 + CC#N
308.15 K, 101 kPa
Conditions	viscosity [mPa·s]
x1 = 0.0418	0.3347 ± 0.013
x1 = 0.0922	0.3774 ± 0.015
x1 = 0.1459	0.4272 ± 0.016
x1 = 0.2084	0.4875 ± 0.018
x1 = 0.2804	0.5679 ± 0.02
x1 = 0.3757	0.6605 ± 0.023
x1 = 0.4796	0.7806 ± 0.026
x1 = 0.6093	0.9478 ± 0.031
x1 = 0.7791	1.188 ± 0.038
x1 = 0.9397	1.426 ± 0.044

CCOC(=O)CC(C)=O + CCCCCCO
viscosity [mPa·s], 100 kPa
Conditions	x1 = 0.1053	x1 = 0.1983	x1 = 0.2962	x1 = 0.3947	x1 = 0.4947	x1 = 0.5989	x1 = 0.6989	x1 = 0.7954	x1 = 0.892
293.15 K	3.828 ± 0.23	3.026 ± 0.18	2.545 ± 0.15	2.245 ± 0.14	2.034 ± 0.12	1.867 ± 0.11	1.749 ± 0.11	1.688 ± 0.1	1.655 ± 0.1
298.15 K	3.286 ± 0.2	2.644 ± 0.16	2.285 ± 0.14	2.022 ± 0.12	1.809 ± 0.11	1.651 ± 0.1	1.571 ± 0.095	1.555 ± 0.094	1.538 ± 0.093

O=S(=O)([O-])[O-].[Co+2] + O
viscosity, 101.33 kPa
Conditions	x1 = 0.000905	x1 = 0.002718	x1 = 0.00453	x1 = 0.006344	x1 = 0.008159	x1 = 0.04354	x1 = 0.05633
298.15 K	–	–	–	–	–	3.182 ± 0.088 mPa·s	–
308.15 K	0.7454 ± 0.021 mPa·s	0.799 ± 0.023 mPa·s	0.8405 ± 0.024 mPa·s	0.897 ± 0.025 mPa·s	0.949 ± 0.026 mPa·s	–	–
313.15 K	0.6751 ± 0.019 mPa·s	0.7255 ± 0.021 mPa·s	0.7615 ± 0.022 mPa·s	0.814 ± 0.023 mPa·s	0.8555 ± 0.024 mPa·s	–	–
323.15 K	0.5699 ± 0.017 mPa·s	0.6065 ± 0.018 mPa·s	0.642 ± 0.019 mPa·s	0.689 ± 0.02 mPa·s	0.739 ± 0.021 mPa·s	–	3.091 ± 0.082 mPa·s and 3.091 ± 0.081 mPa·s

CCCCCC(C)O (configuration not stated) + CCCCCCCCCCCC
298.15 K, 101 kPa
Conditions	viscosity [mPa·s]
x2 = 0.0554	4.35 ± 0.06
x2 = 0.0998	3.85 ± 0.06
x2 = 0.1555	3.3 ± 0.06
x2 = 0.1998	2.92 ± 0.06
x2 = 0.2554	2.51 ± 0.06
x2 = 0.2998	2.23 ± 0.06
x2 = 0.3554	1.94 ± 0.06
x2 = 0.4	1.74 ± 0.06
x2 = 0.4555	1.54 ± 0.06
x2 = 0.4999	1.42 ± 0.06
x2 = 0.5554	1.3 ± 0.06
x2 = 0.5998	1.22 ± 0.06
x2 = 0.6554	1.16 ± 0.06
x2 = 0.6998	1.12 ± 0.06
x2 = 0.7553	1.09 ± 0.06
x2 = 0.7999	1.08 ± 0.06
x2 = 0.8554	1.07 ± 0.06
x2 = 0.8995	1.06 ± 0.06
x2 = 0.9546	1.11 ± 0.06

O=CN1CCOCC1 + c1ccccc1
298.15 K, 101.3 kPa
Conditions	viscosity [mPa·s]
x2 = 0.03787	6.858 ± 0.048
x2 = 0.07912	6.137 ± 0.044
x2 = 0.1309	5.329 ± 0.039
x2 = 0.22	4.199 ± 0.032
x2 = 0.3483	2.992 ± 0.023
x2 = 0.4314	2.381 ± 0.019
x2 = 0.5526	1.734 ± 0.014
x2 = 0.6351	1.413 ± 0.011
x2 = 0.7176	1.157 ± 0.01
x2 = 0.7536	1.058 ± 0.009
x2 = 0.83	0.88 ± 0.007
x2 = 0.894	0.767 ± 0.007
x2 = 0.9506	0.671 ± 0.006

C=CCc1ccc(O)c(OC)c1 + CCCCCOC(C)=O
298.15 K, 101 kPa
Conditions	viscosity [mPa·s]
x1 = 0.1	0.698 ± 0.0091
x1 = 0.162	1.11 ± 0.014

C=CCN=C=S + CCNc1ccccc1
viscosity [mPa·s], 101 kPa
Conditions	x1 = 0.2366	x1 = 0.4021	x1 = 0.4673	x1 = 0.5	x1 = 0.5346	x1 = 0.6032	x1 = 0.7385
298.15 K	5.955 ± 0.16	18.81 ± 0.51	37.55 ± 0.99	48.24 ± 1.3	29.45 ± 0.8	7.747 ± 0.23	2.277 ± 0.064
323.15 K	2.83 ± 0.076	6.28 ± 0.19	9.92 ± 0.34	11.98 ± 0.43	8.399 ± 0.28	3.234 ± 0.088	1.313 ± 0.034
